Data reported in patent publication US6403621B1, “Method for protecting plants” (Syngenta Crop Protection, Inc., priority 1997, dated 2002).

How the values were obtained:
[1] = tested on: root-knot nematodes (Meloidogyne javanica and M. arenaria); assay: Egg production by root-knot nematodes on inoculated grapevines after foliar spray; format: in vivo; settings: 50 mg/l foliar spray, eggs in 20 ml sub-sample
Method: (§1) Root-knot nematodes (Meloidogyne spp.) are cultured on tobacco or tomato. Root-knot nematode eggs are collected from these plants and hatched for inoculation of the grapevines using the standard method. Nematode eggs are collected from the inoculated grapevines by agitating clean root pieces in 0,8% NaOCl for four minutes. The roots are washed on a bank of three sieves and eggs collected on a 25 μm sieve. The eggs are washed into 100 ml of water and the number of eggs in a 20 ml sub-sample is estimated using a Doncaster dish. Galling is assessed in grapevine roots before egg counts. The roots are assessed with the naked eye for percentage of galls on the roots.
(§2) Uniformly developed rooted hardwood grapevine cuttings, variety Cabernet Sauvignon (Vitis vinifera), are planted into 20 cm diameter pots (one plant per pot) containing a pasteurised potting mix consisting of 50:50 coarse sand and peat. (Prior to pasteurisation, 300 g of fertiliser is added to each 50 liter bin of potting mix. The fertiliser consisted of 1000 g single superphosphate, 200 g ammonium nitrate, 150 g potassium sulphate, 100 g ferrous sulphate, 3000 g dolomite lime and 1500 g lime). The grapevines are grown in a glasshouse at 19-24° C. The plants are watered on alternate days, and fertilised weekly with a water soluble fertiliser. Grapevines are inoculated with 1000 juveniles of a mixed population of root-knot nematodes (Meloidogyne javanica and M. arenaria) 4 weeks after planting. The nematodes are pipetted into two 2cm deep holes at the base of the plant. Grapevine roots are harvested for nematode egg counts 10 weeks after inoculation (described below).
(§3) Acibenzolar-S-methyl (which is benzo(1,2,3)thiadiazole-7-carbothioic acid S-methyl ester, a plant activator from NOVARTIS) is formulated as a 50% water dispersible granule, diluted to 50 mg per liter of spray mixture and sprayed onto the leaves of the grapevines (using a hand-held sprayer) until the point of run-off.
a) cumulative applications: In the first series, acibenzolar-S-methyl is applied to the plants once, twice or three times. The single treatment of acibenzolar-S-methyl is applied one week before inoculation; the double treatment is applied one week before inoculation and at the same time as inoculation; for the third treatment acibenzolar-S-methyl is applied one week before inoculation, at inoculation and one week after inoculation.
(§4) b) single applications: A second series of experiments tested only single applications of acibenzolar-S-methyl either five days before inoculation, at the same time as inoculation or five days after inoculation. Both series of experiments have been completed twice. Water is used as the control treatment in each series.
(§5) The tables indicate the number of eggs produced by Meloidogyne spp in a 20 ml sub-sample, and the percentage galling on roots, resp.

[2] = tested on: root-knot nematodes (Meloidogyne javanica and M. arenaria); assay: Percentage galling on grapevine roots after foliar spray; format: in vivo; settings: 50 mg/l foliar spray
Method: as §1, §2, §3, §4, §5

grapevines = assay: Plant tolerance (phytotoxicity, appearance, fresh weights) of treated grapevines; format: in vivo, Vitis vinifera (Cabernet Sauvignon); settings: 50 mg/l foliar spray
Method: as §2, §3

nematodes = assay: Protection of other crops against attack by nematodes; format: in vivo; settings: applied on tomatoes, soybean, carrots, potatoes and beet
From the text: Good effects for protecting plants against attack by nematodes are also found by applying acibenzolar-S-methyl on tomatoes, soybean, carrots, potatoes and beet.

[3] = tested on: Eggs and juvenile root-knot nematodes; assay: Direct effect on eggs and juvenile root-knot nematodes in aqueous solution; set-up: species or system Meloidogyne spp.
From the text: Direct Effect of Acibenzolar-S-methyl onto Nematodes Eggs and juvenile root-knot nematodes are placed into aqueous solutions of acibenzolar-S-methyl (1, 10, 20 and 50 ppm active ingredient). No effect is observed on egg hatching and viability on those eggs and juvenils on penetration of those nematodes into tomato roots and on the number of eggs produced by those nematodes on tomatoes.

[4] = after exposure to aqueous solutions, 1, 10, 20 and 50 ppm active ingredient

CSC(=O)c1cccc2nnsc12 [acibenzolar-S-methyl, benzo(1,2,3)thiadiazole-7-carbothioic acid S-methyl ester]
Number of eggs ([1]; one application (one week before inoculation), first experiment, 10 weeks after inoculation, control 4320): 1520 (8) | Number of eggs ([1]; one application (one week before inoculation), second experiment, control 240): 150 (7) | Number of eggs ([1]; three applications (one week before, at and one week after inoculation), first experiment, control 4320): 1400 (6) | Number of eggs ([1]; three applications (one week before, at and one week after inoculation), second experiment, control 240): 20 (7) | Number of eggs ([1]; two applications (one week before and at inoculation), first experiment, control 4320): 740 (7) | Number of eggs ([1]; two applications (one week before and at inoculation), second experiment, control 240): 100 (7) | Mean percentage galling ([2]; single application at inoculation, first experiment, control 10): 2.3 (8) % | Mean percentage galling ([2]; single application at inoculation, second experiment, control 5): 3 (6) % | Mean percentage galling ([2]; single application five days after inoculation, first experiment, control 10): 1.1 (8) % | Mean percentage galling ([2]; single application five days after inoculation, second experiment, control 5): 4 (8) % | Mean percentage galling ([2]; single application five days before inoculation, first experiment, control 10): 0.6 (8) % | Mean percentage galling ([2]; single application five days before inoculation, second experiment, control 5): 2 (7) % | appearance of grapevines at harvest (grapevines; versus water control): no significant differences | phytotoxicity (grapevines; grapevines): No phytotoxicity | root fresh weights or fresh weight of the foliage and stems (grapevines; grapevines): no difference | protecting plants against attack by nematodes (nematodes): Good effects | effect on number of eggs produced by the nematodes on tomatoes [3, 4]: No effect | effect on penetration of nematodes into tomato roots [3, 4]: No effect | effect on egg hatching and viability of eggs and juveniles ([3]; aqueous solutions, 1, 10, 20 and 50 ppm active ingredient): No effect
